# Assay results reported in patent publication US11440906B2, “Biguanide derivatives and their rearrangement products for use in the treatment of cancer” (CENTRE NATIONAL DE LA RECHERCHE SCIENTIFIQUE, priority 2017, dated 2022).
# Like-named read-outs stand apart in the source and are kept apart here.
# Assays:
# A375 Sensitive cells = test: Viability test, trypan blue exclusion, A375 Sensitive cells; assay type: cell-based, human; conditions: for viability at 5 µM / viability at 10 µM: viable cells as percentage of DMSO control
# How it was run: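 A375 (B-Raf, CDKN2A, PTEN mutant) cells were exposed to compounds at 5.0 or 10 μM for 24 or 48 hr; CRO15 also at 0.5–50 μM for 48 hr or 5 μM for 2–48 hr; DMSO control. Viable cells were counted by trypan blue exclusion, as % of control. Three experiments in triplicate.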
# Melanoma cell line DR6 = test: Viability test on double resistant cells to BRAF and MEK inhibitors; assay type: cell-based; conditions: 5 μM or 10 μM, 24 hours; FIG. 5
# Description: (§1) For trypan blue staining, […] of cells (melanoma and normal human cells) were aseptically transferred to a 1.5 mL clear Eppendorf tube and incubated for 3 min at room temperature with an equal volume of 0.4% trypan blue solution. Viable cells were counted and the results are expressed as the percentage of the value of control cells. All the experiments are performed 3 times in triplicate.
# Melanoma cell line DR6 resistant cells to B-Raf inhibitor (Vemurafenib=PLX4032) and to MEK inhibitor (Cobimetinib) were treated with DMSO (control), with 5 μM or 10 μM of CRO15 or with a combination of 1 μM of vemurafenib and 0.5 μM of cobimetinib. After 24 hours of stimulation, viable cells were counted using the trypan blue dye exclusion method. The results are normalized as percentages compare to the control. Error bars represents ±SEM of triplicate.
# [1] = tested on: A375 resistant melanoma cells; test: Viability test of CRO15 on resistant melanoma cells; assay type: cell-based, human; conditions: 48 hr, FIG. 4A
# Description: Resistant melanoma cell lines A375 and SKMel28 were a gift from Professor P. Marchetti and described in Corazao-Rozas et al. (2013). Cells were grown in RPMI 1640 or in DMEM supplemented with 10% of Foetal Calf Serum (FCS) and penicillin/streptomycin (100 U/ml/[…]) at 37° C. and 5% CO2.
# as §1
# A375 sensitive and resistant melanoma cells were treated with 5 μM of CRO15 for 48 hr or with 5 μM of PLX4032 for 48 hr or with DMSO (Control). At 48 hours, viable cells were counted using the trypan blue dye exclusion method. The results are normalized as percentages compare to the control and data means±SEM of three independent experiments performed in triplicate *p<0.05; **p<0.01; ***p<0.001.
# AMPK = test: Western blot assays, A375 Sensitive cells; assay type: cell-based, human; conditions: 5 μM, 6 hr, 12 hr or 24 hr; FIG. 2
# Description: Western blot analyses were performed as described (Lehraiki et al., 2014). Proteins were extracted in buffer containing 50 mmol/l Tris-HCl (pH 7.5), 15 mmol/1, NaCl, 1% Triton X-100, and 1× protease and phosphatase inhibitors. Briefly, cell lysates […] were separated by SDS-PAGE, transferred onto a polyvinylidene fluoride membrane (Millipore), and then exposed to the appropriate antibodies. Proteins were visualized with the ECL System from Amersham. The western blot analyses shown are representative of at least three independent experiments.
# Western Blot analysis: A375 Sensitive cells were treated with 5 μM of CRO15 for different time (6 hr, 12 hr or 24 hr) or with DMSO (Control) for 24 hr.
# normal human cells = test: Viability test with CRO15, normal human cells; assay type: cell-based; conditions: 5 μM, 48 hours; FIG. 1E
# Description: Fresh sterile tissues were obtained from surgical waste from patients diagnosed with metastatic melanoma at the Nice CHU hospital. Epidermal cell suspensions were obtained from foreskins of Caucasian children by overnight digestion in phosphate-buffered saline containing 0.5% dispase grade II at 4° C., followed by a 20 min digestion with 0.05% trypsin-0.02% EDTA in phosphate-buffered saline (V/V) at 37° C. Human primary melanocytes were grown in MCDB153 medium supplemented with 2% FCS, 0.4 μg/ml hydrocortisone, 5 μg/ml insulin, 16 nM phorbol-12 myristate 13-acetate, 1 ng/ml basic fibroblast growth factor, 10 μg/ml bovine pituitary extract and penicillin/streptomycin (100 U/ml/50 μg/ml). […]
# as §1, with “All the experiments are performed 3 times in triplicate.” left out
# Different melanoma cell lines with various mutations, patient cells with various mutations and normal human cells, were treated with 5 μM of CRO15 for 48 hours or DMSO (Control). At the end of stimulation, viable cells were counted using the trypan blue dye exclusion method. […]
structure (smiles),measurement,setting,value
"Nc1nc(Nc2ccccc2SSc2ccccc2Nc2nc(N)nc(C(Cl)(Cl)Cl)n2)nc(C(Cl)(Cl)Cl)n1 [CRO15, N2,N2′-(disulfanediylbis(2,1-phenylene))bis(6-(trichloromethyl)-1,3,5-triazine-2,4-diamine)]",decrease of the viability compared with PLX4032,"A375 Sensitive cells; 5 μM each, 48 hr, FIG. 1A",more important with CRO15 than with PLX4032
same,"cell viability of A375 S cells, kinetic","A375 Sensitive cells; 5 μM, 2 hr to 48 hr, FIG. 1A",induces a decrease of the viability of melanoma cells
same,"cell viability, A375 sensitive melanoma cells","A375 Sensitive cells; 5 μM, 48 hr, FIG. 4A",induces a decrease of the cell viability
same,dose-response on melanoma cells viability,"A375 Sensitive cells; 0.5-50 μM, 48 hr, FIG. 1B",dose-response relationship
same,viability at 5 µM,"A375 Sensitive cells; Homo sapiens, A-375, 5 μM, 24 h, read-out: Viab A375 5 μM/ 24 h",36%
same,viability at 5 µM,"A375 Sensitive cells; Homo sapiens, A-375, 5 μM, 48 h, read-out: Viab A375 5 μM/ 48 h",27%
same,viability at 10 µM,"A375 Sensitive cells; Homo sapiens, A-375, 24 h, read-out: Viab A375 10 μM/ 24 h",23%
same,viability at 10 µM,"A375 Sensitive cells; Homo sapiens, A-375, 48 h, read-out: Viab A375 10 μM/ 48 h",2.6%
same,IC50,"A375 Sensitive cells; Homo sapiens, A-375, A375 Sensitive cells, 48 hr, read-out: IC50 of CRO15",3.75 µM
same,cell viability of DR6 cells,Melanoma cell line DR6,induces a decrease of the cell viability
same,decrease of the viability compared with PLX4032,"[1]; 5 μM each, A375 sensitive and resistant",more important with CRO15 than with PLX4032
same,"cell viability, A375 resistant melanoma cells",[1]; 5 μM,induces a decrease of the cell viability
same,activation of AMPK (western blot),AMPK,induces an activation of AMPK
same,viability of normal cells (toxicity),normal human cells,not toxic for normal cells
